Experimental data published in patent publication US10167315B2, “Peptoids and methods for treating Alzheimer's disease” (THE BOARD OF TRUSTEES OF THE UNIVERSITY OF ARKANSAS, priority 2015, dated 2019).
Where a SMILES comes first, the peptide text is derived from it. [ ]: non-standard residue; d: D form. N(1S-Me-propyl)Gly = CC[C@H](C)NCC(=O)O; Nspe = C[C@H](NCC(=O)O)c1ccccc1; Nphe = O=C(O)CNCc1ccccc1; NPrGly = CCCNCC(=O)O; Nlys = NCCCCNCC(=O)O

Tests used:
[1] = biological target: T1, Aβ40 (Homo sapiens, UniProt P05067); assay: Aβ40 aggregation assay monitored via ThT fluorescence; assay type: biochemical; settings: 100 μM peptoid, 20 μM Aβ40 monomer; mean±SEM, n=7
T1 construct: purchased Anaspec, Inc
Procedure: (§1) Aβ40 was dissolved in cold 1,1,1,3,3-hexafluoro-2-propanol (HFIP) to create a 1 mM solution and was incubated on ice for 60 min. After incubation, the solution was aliquoted into individual silicon-coated vials, and HFIP was allowed to evaporate overnight at room temperature, resulting in a thin protein film that was stored with desiccant at −80° C. until use. Prior to experimentation, protein films were rehydrated with 5 mM NaOH on ice for 5 min, and then 40 mM Tris-HCl (pH 8.0) was added for 10 min on ice for a final concentration of 250 μM NaOH.
(§2) Aggregation assays were performed with 20 μM rehydrated Aβ40 in 40 mM Tris-HCl (pH 8.0) and 150 mM NaCl. Peptoids were dissolved in DMSO and added at 100 μM such that the final DMSO concentration was 5% (v/v). Assays were performed at 25° C. with agitation on an orbital shaker at 800 rpm.
To monitor aggregation using ThT, an aliquot of the aggregation reaction was taken at varying time points and combined with 12.5 μM ThT at a 5:1 molar ratio (ThT:Aβ). Samples were mixed for 8 s and then scanned with a Shimazdu RF-150 mini fluorometer (excitation at 440±10 nm and emission at 490±10 nm) using an average scan time of 4 s. ThT fluorescence with background (ThT alone) subtraction was normalized to the fluorescence detected at equilibrium within the control reaction, and results were plotted against time. […] The fold-change in the lag time was calculated as the ratio of the lag time observed in the presence of peptoid to that of the control. The equilibrium plateau was determined for both the control and peptoid reactions, and percent inhibition was calculated as the percentage decrease of the equilibrium plateau observed in the presence of peptoid relative to the control.

[2] = biological target: T1, Aβ40; assay: Aβ40 aggregation assay assessed by dot blot analysis with fibril specific OC antibody; assay type: biochemical; settings: 100 μM peptoid, 20 μM Aβ40 monomer; for lag time extension (dot blot, OC antibody), FIG. 3 legend: mean±SEM, n=3
Procedure: as §1, §2
In parallel with ThT fluorescence, aggregation assays were also assessed by dot blot analysis. […] Membranes were washed three times with TBS-T and incubated with Aβ fibril specific OC antibody (1:5000 dilution) for 1 h at room temperature with gentle agitation. Membranes were again washed three times with TBS-T. Protein detection for bound OC antibody was performed by binding alkaline phosphatase-conjugated anti-rabbit IgG (1:3000 dilution) for 1 h at room temperature with gentle agitation. Dot blots were developed using nitro blue tetrazolium and 5-bromo-4-chloro-3-indolyl phosphate in TBS-T/MgCl2 until […]. The developing reaction was halted using a 10% acetic acid solution. Dot blots were immediately imaged using a Canon CanoScan 9000F (Tokyo, Japan). Images were analyzed with ImageJ software using the gel lane analysis tool. Dot density was normalized to the density detected at equilibrium for the control and plotted against time. The fold-change in lag time and percent inhibition were assessed as described for ThT fluorescence.

[3] = biological target: T1, Aβ40; assay: Transmission electron microscopy of Aβ40 aggregates; settings: 100 μM peptoid, 20 μM Aβ40, 255 min; for overall number of Aβ40 aggregates (TEM): versus control
Procedure: Aggregation assays were performed with 20 μM rehydrated Aβ40 in 40 mM Tris-HCl (pH 8.0) and 150 mM NaCl. Peptoids were dissolved in DMSO and added at 100 μM such that the final DMSO concentration was 5% (v/v). Assays were performed at 25° C. with agitation on an orbital shaker at 800 rpm. Monomer aggregation reactions were gridded for transmission electron microscopy (TEM) at 255 min, a time by which the control reaction had reached plateau as observed by ThT fluorescence. A 3 μL sample was placed onto a wax substrate, and a 300 square mesh formvar-carbon supported nickel grid (Electron Microscopy Sciences, Hatfield, Pa.) was inverted onto the sample. After 1 min, the sample was wicked away from the bottom side of the grid using a piece of filter paper. A 3 μL sample of 2% uranyl acetate was then placed onto the wax substrate, and the grid was inverted onto the solution for a period of 45 s. Excess stain was wicked away with a piece of filter paper, and the grids were allowed to dry for a period of 24 h. Imaging was performed using a JEOL-1011 transmission electron microscope (JEOL Ltd., Tokyo, Japan) with an accelerating voltage of 110 kV. Blinded observation of samples with random selection of grid areas was implemented to reduce bias during imaging. Images are the representative of 3 repeated experiments and 3 random sections of the grids.

[4] = biological target: T1, Aβ40; assay: Nile Red spectroscopy, surface hydrophobicity of Aβ40 aggregates; settings: 100 μM peptoid, 20 μM Aβ40, equilibrium plateau; n=3-4
Procedure: as §2
To monitor peptoid-induced changes in aggregate surface hydrophobicity, which are indicative of changes in aggregate conformation, an aliquot of the aggregation reaction was taken from the equilibrium plateau and combined with 200 μM Nile Red (Life Technologies, Carlsbad, Calif.) at a 10:1 molar ratio (Nile Red:Aβ). Samples were scanned using a PerkinElmer LS 45 Luminescence Spectrometer (excitation at 550 nm and emission from 580-700 nm), and the integrated area under the curve (IAUC) was calculated from 580-700 nm. The IAUC was blank (Nile Red, peptoid) subtracted and normalized to Nile Red measurements performed for the control reaction.

[5] = biological target: T1, Aβ40; settings: cited from earlier work
[6] = biological target: T1, Aβ40; settings: different Aβ lot; cited from earlier work

T1 sequence (P05067 672-711 limits assumed): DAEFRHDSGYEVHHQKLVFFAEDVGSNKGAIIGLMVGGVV

SMILES: CC[C@H](C)N(CC(=O)N(CC(=O)N(CC(=O)N(CC(=O)N(CC(=O)N(CC(=O)N(CC(N)=O)[C@@H](C)c1ccccc1)[C@@H](C)c1ccccc1)[C@@H](C)CC)[C@@H](C)c1ccccc1)[C@@H](C)c1ccccc1)[C@@H](C)CC)C(=O)CNCCCCN [JPT1] (H-[Nlys][N(1S-Me-propyl)Gly][N(1S-Me-propyl)Gly][Nspe][Nspe][N(1S-Me-propyl)Gly][Nspe][Nspe]-NH2)
- Inhibition of Aβ40 aggregation (reduction in the ThT fluorescence plateau at equilibrium) [1]: 83.1±4.8%
- decrease in fibrillar aggregates at equilibrium (dot blot, OC antibody) [2]: 46.0±11.4%
- fold change in lag time versus the control (dot blot, OC antibody) [2]: 2.7±0.8 fold
- lag time extension (dot blot, OC antibody), FIG. 3 legend [2]: 2.67±0.83 times that of the control
- morphology of Aβ40 aggregates formed in the presence of peptoid (TEM) [3]: small aggregates with no extensive branching
- overall number of Aβ40 aggregates (TEM) [3]: reduction in the overall number of aggregates
- surface hydrophobicity of Aβ40 aggregates (Nile Red fluorescence IAUC 580-700 nm normalized to control) [4]: no significant change in Nile Red fluorescence
- Inhibition of Aβ40 aggregation (ThT), previously reported value [5]: 81.2±4.4%
- decrease in fibrillar aggregates (dot blot), previously published data [6]: 63.7±9.2%
- fold change in lag time compared to the control (dot blot), previously published data [6]: < 0.31 fold

SMILES: CC[C@H](C)NCC(=O)N(CC(=O)N(CC(=O)N(CC(=O)N(CC(=O)N(CCCCN)CC(=O)N(CC(=O)N(CC(N)=O)[C@@H](C)c1ccccc1)[C@@H](C)CC)[C@@H](C)CC)[C@@H](C)c1ccccc1)[C@@H](C)c1ccccc1)[C@@H](C)c1ccccc1 [JPT1s] (H-[N(1S-Me-propyl)Gly][Nspe][Nspe][Nspe][N(1S-Me-propyl)Gly][Nlys][N(1S-Me-propyl)Gly][Nspe]-NH2)
- Inhibition of Aβ40 aggregation (reduction in the ThT fluorescence plateau at equilibrium) [1]: 76.9±4.8%
- decrease in fibrillar aggregates at equilibrium (dot blot, OC antibody) [2]: 50.5±9.0%
- fold change in lag time versus the control (dot blot, OC antibody) [2]: 2.2±0.4 fold
- lag time extension (dot blot, OC antibody), FIG. 3 legend [2]: 2.22±0.28 times that of the control
- overall number of Aβ40 aggregates (TEM) [3]: reduction in the overall number of aggregates
- surface hydrophobicity of Aβ40 aggregates (Nile Red fluorescence IAUC 580-700 nm normalized to control) [4]: no significant change in Nile Red fluorescence

SMILES: CCCN(CC(=O)N(CCC)CC(=O)N(CC(=O)N(CC(=O)N(CCC)CC(=O)N(CC(=O)N(CC(N)=O)Cc1ccccc1)Cc1ccccc1)Cc1ccccc1)Cc1ccccc1)C(=O)CNCCCCN [JPT1a] (H-[Nlys][NPrGly][NPrGly][Nphe][Nphe][NPrGly][Nphe][Nphe]-NH2)
- Inhibition of Aβ40 aggregation (reduction in the ThT fluorescence plateau at equilibrium) [1]: 85.6±4.8%
- decrease in fibrillar aggregates at equilibrium (dot blot, OC antibody) [2]: 72.6±4.5%
- fold change in lag time versus the control (dot blot, OC antibody) [2]: < 0.50 fold
- lag time extension (dot blot, OC antibody), FIG. 3 legend [2]: < 0.42 times that of the control
- morphology of Aβ40 aggregates formed in the presence of peptoid (TEM) [3]: circular, bird nest-like morphology
- overall number of Aβ40 aggregates (TEM) [3]: reduction in the overall number of aggregates
- surface hydrophobicity of Aβ40 aggregates (Nile Red fluorescence IAUC 580-700 nm normalized to control) [4]: significantly increased surface hydrophobicity
